Key:
IDH1 R132C = IDH1 R132C (Homo sapiens, UniProt O75874, R132C); experiment: IDH1 R132C enzymatic assay (NADPH depletion coupled to diaphorase/resazurin); type: biochemical; conditions: IDH1 R132C enzymatic inhibition, IC50 class
Experimental: (§1) Assays were conducted in a 1536-well black solid-bottom plate with a final assay volume of 9 μL.
For IDH1 R132C, 3 μL of enzyme (0.00032 mg/mL IDH1 […], 10% glycerol, 50 mM potassium phosphate pH 6.5, 5 mM MgCl2, 0.03% BSA) were added to the plate, followed by the addition of 23 nL of test compound in DMSO. The plate was lidded and incubated at room temperature for 30 minutes at which time 3 μL of substrate were added (0.012 mM NADPH, 0.6 mM α-KG, 10% glycerol, 50 mM potassium phosphate pH 6.5, 5 mM MgCl2, 0.03% BSA). […]

IDH1 R132H = IDH1 R132H (Homo sapiens, UniProt O75874, R132H); experiment: IDH1 R132H enzymatic assay (NADPH depletion coupled to diaphorase/resazurin); type: biochemical; conditions: IDH1 R132H enzymatic inhibition, IC50 class
Sequence of IDH1 R132H (O75874 whole entry R132H): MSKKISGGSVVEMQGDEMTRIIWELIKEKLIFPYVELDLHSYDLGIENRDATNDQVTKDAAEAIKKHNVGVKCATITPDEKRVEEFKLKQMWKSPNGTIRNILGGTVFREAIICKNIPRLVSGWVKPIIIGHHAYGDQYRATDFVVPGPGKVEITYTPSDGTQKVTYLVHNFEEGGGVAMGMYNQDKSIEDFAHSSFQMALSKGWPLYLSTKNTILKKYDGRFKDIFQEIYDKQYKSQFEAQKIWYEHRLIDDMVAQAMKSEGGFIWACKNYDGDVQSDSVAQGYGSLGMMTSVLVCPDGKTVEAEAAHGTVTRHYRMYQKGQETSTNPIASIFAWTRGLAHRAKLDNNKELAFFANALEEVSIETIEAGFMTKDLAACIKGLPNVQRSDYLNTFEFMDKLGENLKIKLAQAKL
Experimental: as §1
Specifically, for IDH1 R132H, 3 μL of enzyme (4 mM β-ME, 0.0005 mg/mL IDH1 R132H, 150 mM NaCl, 20 mM Tris pH 7.5, 10 mM MgCl2, 0.05% BSA) were added to the plate, followed by the addition of 23 nL of test compound in DMSO. The plate was lidded and incubated at room temperature for 30 minutes at which time 3 μL of substrate were added (0.016 mM NADPH, 2 mM α-KG, 150 mM NaCl, 20 mM Tris pH 7.5, 10 mM MgCl2, 0.05% BSA). This reaction was incubated at room-temperature for 60 minutes at which time the detection mix was added (0.06 mg/mL diaphorase, 0.036 mM resazurin, 150 mM NaCl, 20 mM Tris pH 7.5, 10 mM MgCl2, 0.05% BSA). […]

Sequence of IDH1 R132C (O75874 whole entry R132C): as the sequence (O75874 whole entry R132H) above, with H132C counted along it

IC50 (IDH1 R132C) [nM] | IC50 (IDH1 R132H) [nM] | SMILES
1000 to 5000 | 1000 to 5000 | COc1cccc(C)c1-n1c2c(cc(-c3nc(-c4ccc(Cl)cc4)cs3)c1=O)C(=O)CC(C)(C)C2 [Compound 52]
300 to 1000 | 1000 to 5000 | CCc1cccc(CC)c1-n1c(C)c(C(=O)N2CCN(C)CC2)cc(-c2nc(-c3ccc(Cl)cc3)cs2)c1=O [Compound 53]
300 to 1000 | 300 to 1000 | CCc1cccc(CC)c1-n1c(CC(C)C)c(C(=O)NC(C)(C)CO)cc(-c2nc(-c3ccc(Cl)cc3)cs2)c1=O [Compound 54]
1000 to 5000 | > 20000 | CC(C)n1c2c(cc(-c3nc(-c4ccc(Cl)cc4)cs3)c1=O)C(=O)CC(C)(C)C2 [Compound 55]
300 to 1000 | 300 to 1000 | CN(C)c1ccccc1-n1c2c(cc(-c3nc(-c4ccc(Cl)cc4)cs3)c1=O)C(=O)CC(C)(C)C2 [Compound 56]
< 300 | 300 to 1000 | CC1(C)CC(=O)c2cc(-c3nc(-c4ccc(Cl)cc4)cs3)c(=O)n(-c3ccccc3C(F)(F)F)c2C1 [Compound 57]
1000 to 5000 | 300 to 1000 | CCc1cccc(C(=O)O)c1-n1c2c(cc(-c3nc(-c4ccc(Cl)cc4)cs3)c1=O)C(=O)CC(C)(C)C2 [Compound 58]
1000 to 5000 | 1000 to 5000 | COc1cccc(OC)c1-n1c2c(cc(-c3nc(-c4ccc(Cl)cc4)cs3)c1=O)C(=O)CC(C)(C)C2 [Compound 59]
300 to 1000 | 300 to 1000 | CCc1cccc(CC)c1-n1c(C)c(C(=O)N2CCN[C@H](C(=O)O)C2)cc(-c2nc(-c3ccc(Cl)cc3)cs2)c1=O [Compound 60]
< 300 | 300 to 1000 | CCc1cccc(CC)c1-n1c(CC(C)C)c(C(=O)N2[C@H](C)CNC[C@@H]2C)cc(-c2nc(-c3ccc(Cl)cc3)cs2)c1=O [Compound 61]
5000 to 20000 | > 20000 | COc1ccc(OC)c(-n2c(C)ccc(-c3nc(-c4ccc(Cl)cc4)cs3)c2=O)c1 [Compound 62]
300 to 1000 | 1000 to 5000 | CCc1cccc(CC)c1-n1c(CC(C)C)c(C(=O)N2CC(O)C2)cc(-c2nc(-c3ccc(Cl)cc3)cs2)c1=O [Compound 63]
300 to 1000 | 1000 to 5000 | CCc1cccc(CC)c1-n1c(CC(C)C)c(C(=O)N[C@H](C)CO)cc(-c2nc(-c3ccc(Cl)cc3)cs2)c1=O [Compound 64]
5000 to 20000 | > 20000 | COc1ccc(OC)c(-n2c3c(cc(-c4cn(-c5ccc(Cl)cc5)cn4)c2=O)C(=O)CC(C)(C)C3)c1 [Compound 65]
300 to 1000 | 300 to 1000 | CCc1cccc(CC)c1-n1c(C)c(C(=O)N2CCCNCC2)cc(-c2nc(-c3ccc(Cl)cc3)cs2)c1=O [Compound 66]
5000 to 20000 | 1000 to 5000 | CCc1cccc(CC)c1-n1c(C)c(C(=O)N2CCCCC2C(=O)O)cc(-c2nc(-c3ccc(Cl)cc3)cs2)c1=O (stereo not shown) [Compound 67]
> 20000 | > 20000 | COc1ccc(OC)c(-n2c(=O)c(-c3nc(-c4ccc(Cl)cc4)cs3)cc3c(O)cccc32)c1 [Compound 68]
1000 to 5000 | 1000 to 5000 | COc1ccc(OC)c(-n2c3c(cc(-c4nc(C5CCCCC5)cs4)c2=O)C(=O)CC(C)(C)C3)c1 [Compound 69]
< 300 | 300 to 1000 | CCc1cccc(CC)c1-n1c(CC(C)C)c(C(=O)N2CCNC(C)(C)C2)cc(-c2nc(-c3ccc(Cl)cc3)cs2)c1=O [Compound 70]
300 to 1000 | 300 to 1000 | Cc1ccc(-c2csc(-c3cc4c(n(-c5ccccc5C(F)(F)F)c3=O)CC(C)(C)CC4=O)n2)cc1 [Compound 71]
1000 to 5000 | 1000 to 5000 | Cc1cc(-n2c3c(cc(-c4nc(-c5ccc(Cl)cc5)cs4)c2=O)C(=O)CC(C)(C)C3)n(C)n1 [Compound 72]

IC50 (IDH1 R132C) [nM] | IC50 (IDH1 R132H) [nM] | SMILES
1000 to 5000 | 1000 to 5000 | COc1ccc(OC)c(-n2c3c(cc(-c4nc(-c5ccc(Cl)cc5)cs4)c2=O)CCC(C)(C)C3)c1 [Compound 73]
5000 to 20000 | 1000 to 5000 | CCc1cccc(CC)c1-n1c2c(cc(-c3nc(-c4ccc(Cl)cc4)cs3)c1=O)C(=O)NC2 [Compound 74]
300 to 1000 | 1000 to 5000 | CCc1cccc(CC)c1-n1c(CC(C)C)c(C(=O)N2CCNCC2C(=O)O)cc(-c2nc(-c3ccc(Cl)cc3)cs2)c1=O (stereo not shown) [Compound 75]
< 300 | < 300 | CCc1cccc(CC)c1-n1c(CC(C)C)c(C(=O)N2CCNCC2)cc(-c2nc(-c3ccc(C)cc3)c(C)s2)c1=O [Compound 76]
< 300 | 300 to 1000 | CCc1cccc(CC)c1-n1c(CC(C)C)c(C(=O)NCC(C)(C)O)cc(-c2nc(-c3ccc(Cl)cc3)cs2)c1=O [Compound 77]
> 20000 | > 20000 | COc1ccc(OC)c(-n2cccc(-c3nc(-c4ccc(Cl)cc4)cs3)c2=O)c1 [Compound 78]
> 20000 | > 20000 | O=c1[nH]cccc1-c1nc(-c2ccc(Cl)cc2)cs1 [Compound 79, 3-(4-(4-chlorophenyl)thiazol-2-yl)pyridin-2(1H)-one]
< 300 | 300 to 1000 | CCc1cccc(CC)c1-n1c(CC(C)C)c(C(=O)N2CCNC(C)(C(=O)O)C2)cc(-c2nc(-c3ccc(Cl)cc3)cs2)c1=O (stereo not shown) [Compound 80]
300 to 1000 | < 300 | CCc1cccc(CC)c1-n1c(CC(C)C)c(C(=O)N2CCNCC2)cc(-c2nc(-c3ccccc3)c(C)s2)c1=O [Compound 81]
< 300 | < 300 | CCc1cccc(CC)c1-n1c(CC(C)C)c(C(=O)N2CCNCC2)cc(-c2nc(-c3ccc(Cl)cc3)c(C)s2)c1=O [Compound 82]
300 to 1000 | 1000 to 5000 | CCc1cccc(CC)c1-n1c(C)c(C(=O)N2CCN[C@@H](C(=O)OC)C2)cc(-c2nc(-c3ccc(Cl)cc3)cs2)c1=O [Compound 83]
< 300 | 300 to 1000 | CCc1cccc(CC)c1-n1c(C(C)C)c(C(=O)N2CCNC(CO)C2)cc(-c2nc(-c3ccc(Cl)cc3)cs2)c1=O (stereo not shown) [Compound 84]
300 to 1000 | 300 to 1000 | CC1(C)CC(=O)c2cc(-c3nc(-c4ccc(C(F)(F)F)cc4)cs3)c(=O)n(-c3ccccc3C(F)(F)F)c2C1 [Compound 85]
< 300 | 300 to 1000 | CCc1cccc(CC)c1-n1c(C(C)C)c(C(=O)N2CCNCC2)cc(-c2nc(-c3ccc(Cl)cc3)cs2)c1=O [Compound 86]
5000 to 20000 | 5000 to 20000 | CCc1cccc(CC)c1-n1c(CC(C)C)c(C(=O)N2CCNCC2)cc(-c2nc(-c3ccc(C(=O)N4CCOCC4)cc3)c(C)s2)c1=O [Compound 87]
< 300 | < 300 | CCc1cccc(CC)c1-n1c(C(C)C)c(C(=O)N2CCNC(C(=O)O)C2)cc(-c2nc(-c3ccc(Cl)cc3)cs2)c1=O (stereo not shown) [Compound 88]
300 to 1000 | 1000 to 5000 | CCc1cccc(CC)c1-n1c(CC(C)C)c(C(=O)N2CCC(CO)C2)cc(-c2nc(-c3ccc(Cl)cc3)cs2)c1=O (stereo not shown) [Compound 89]
< 300 | < 300 | CCc1cccc(CC)c1-n1c(CC(C)C)c(C(=O)N2CCNC(=O)C2)cc(-c2nc(-c3ccc(Cl)cc3)cs2)c1=O [Compound 91]
1000 to 5000 | 1000 to 5000 | CC1(C)CC(=O)c2cc(-c3nc(-c4ccc(Cl)cc4)cs3)c(=O)n(-c3cc(C(F)(F)F)ccc3N3CCOCC3)c2C1 [Compound 92]
5000 to 20000 | 5000 to 20000 | COc1ccc(OC)c(-n2c3c(cc(C(=O)NCc4ccc(Cl)cc4)c2=O)C(=O)CC(C)(C)C3)c1 [Compound 93]
